Patent US20100041089A1, “IMPROVED METHOD FOR DETECTING CHEMICAL […]” (priority 2006, published 2010)

System: yeast genes (expressed mRNA)
Assay: DNA chip measurement of expressed mRNA of yeast genes after culture with a toxic chemical substance
Type: cell-based, Saccharomyces cerevisiae S288C
Conditions: for level of expressed mRNA in the presence of chemical substance / level in the absence of chemical substance: cultured two hours with the chemical substance; for The level of expressed mRNA in the presence of chemical substance/The level of expressed mRNA in the absence of chemical substance: cultured two hours with substance
Protocol: Yeast (Saccharomyces cerevisiae S288C (a SUC2mal mel gap2 CUP1)) were cultured at 25° C. on YPD medium (yeast extract 1%, polypeptone 2%, glucose 2%). One of toxic chemical substances was added to the cell at logarithmic growth phase, and the cell was further cultured for two hours. Cell was cultured without any chemical substance in the same condition, and was used as a control. Concentrations of the chemical substances were defined to inhibit the growth of the yeast but not lead to death.
After the completion of cultivation, the culture was centrifuged to collect the cells. To the cells, sodium acetate buffer (50 mM sodium acetate, 10 mM EDTA, 1% SDS) was added, and the mixture was shaken at 65° C. for five minutes, followed by returning to room temperature, and obtaining the supernatant, which procedure was repeated two times. To the supernatant, ½ amount of a solution of phenol/chloroform (1:1) was added, and the mixture was centrifuged to give a supernatant, an equal amount of chloroform was added, and the mixture was centrifuged to give a supernatant. To the supernatant, an equal amount of isopropanol containing 0.3 M sodium acetate was added, and the mixture was allowed to stand at room temperature for 30 minutes, after which the mixture was centrifuged to give sediment of the whole RNAs. Seventy % ethanol was added to the sediment, and the mixture was again centrifuged to give sediment, which was then dried and dissolved in water. mRNA was isolated from the whole RNAs as followings. In view of the fact that a poly A chain is attached to the 3′ terminus of mRNA, a polynucleotide having a poly T structure which was immobilized on the surface of latex beads was used to trap the mRNA, and then the mRNA was washed and eluted with spine column (Oligotex-dT30<Super>mRNA Purification Kit, Takara). Reverse transcription of the mRNA was conducted with a reverse transcriptase (Super Script II Reverse Transcriptase; catalogue No. 18064-014, GibcoBRL) using fluorescence-labeled nucleotides to give cDNAs that were introduced with Cy3-dUTP or Cy5-dUTP during the reverse transcription.
The labeled cDNAs were dissolved in TE buffer (10 mM Tris-HCl/1 mM EDTA, pH 8.0), and the solution was dropped on the DNA chip containing the whole genes of yeast (DNA Chip Research Inc. Japan) so that the cDNAs were hybridized on the DNA chip at 65° C. for over 12 hours. The fluoresces intensity of the DNA chip was read with a scanner, and the ratio relative to the fluorescence intensity resulting from the absence of chemical substance was estimated as the following, which is shown in Tables 1 to 9.
In the Tables, “Intensity” indicated in the rightmost column is a value of the level of expressed mRNA of each gene in control cells as divided by the average level of the expressions of the whole genes. A gene of which mRNA level is lower in control, and is higher in cases of addition of chemical substance, is especially useful in the detection of toxic substances.
Here, when a ratio of an amount of mRNA expressed in the presence of the chemical substance to an amount of mRNA expressed in the absence of the chemical substance is two or more, then it is considered significant.

With `[Cl][Pb][Cl]` [(4), PbCl2] the “level of expressed mRNA in the presence of chemical substance / level in the absence of chemical substance” value (yeast gene YNL058C) was 1.7, the “level of expressed mRNA in the presence of chemical substance / level in the absence of chemical substance” value (yeast gene YNL063W) was 1.4 and the “The level of expressed mRNA in the presence of chemical substance/The level of expressed mRNA in the absence of chemical substance” value (yeast gene YNL074C) was 1.2. For the same compound, the “The level of expressed mRNA in the presence of chemical substance/The level of expressed mRNA in the absence of chemical substance” value (yeast gene YNL092W) was 1.8, the “The level of expressed mRNA in the presence of chemical substance/The level of expressed mRNA in the absence of chemical substance” value (yeast gene YNL115C) was 1.4 and the “The level of expressed mRNA in the presence of chemical substance/The level of expressed mRNA in the absence of chemical substance” value (yeast gene YNL156C) was 1.3. The “level of expressed mRNA in the presence of chemical substance / level in the absence of chemical substance” value (yeast gene YNL176C) was 1.0, the “level of expressed mRNA in the presence of chemical substance / level in the absence of chemical substance” value (yeast gene YNL194C) was 15.2 and the “level of expressed mRNA in the presence of chemical substance / level in the absence of chemical substance” value (yeast gene YNL200C) was 2.0. The “The level of expressed mRNA in the presence of chemical substance/The level of expressed mRNA in the absence of chemical substance” value (yeast gene YNL234W) was 1.8, the “level of expressed mRNA in the presence of chemical substance / level in the absence of chemical substance” value (yeast gene YNL253W) was 1.0 and the “level of expressed mRNA in the presence of chemical substance / level in the absence of chemical substance” value (yeast gene YNL276C) was 0.3. For the same compound, the “The level of expressed mRNA in the presence of chemical substance/The level of expressed mRNA in the absence of chemical substance” value (yeast gene YNL281W) was 1.4, the “The level of expressed mRNA in the presence of chemical substance/The level of expressed mRNA in the absence of chemical substance” value (yeast gene YNL305C) was 1.4 and the “level of expressed mRNA in the presence of chemical substance / level in the absence of chemical substance” value (yeast gene YNR051C) was 0.6. For the same compound, the “The level of expressed mRNA in the presence of chemical substance/The level of expressed mRNA in the absence of chemical substance” value (yeast gene YNR068C) was 2.6, the “level of expressed mRNA in the presence of chemical substance / level in the absence of chemical substance” value (yeast gene YOL026C) was 1.4 and the “The level of expressed mRNA in the presence of chemical substance/The level of expressed mRNA in the absence of chemical substance” value (yeast gene YOL032W) was 1.3. For the same compound, the “The level of expressed mRNA in the presence of chemical substance/The level of expressed mRNA in the absence of chemical substance” value (yeast gene YOL036W) was 0.8, the “The level of expressed mRNA in the presence of chemical substance/The level of expressed mRNA in the absence of chemical substance” value (yeast gene YOL047C) was 2.5 and the “The level of expressed mRNA in the presence of chemical substance/The level of expressed mRNA in the absence of chemical substance” value (yeast gene YOL071W) was 2.0. The “The level of expressed mRNA in the presence of chemical substance/The level of expressed mRNA in the absence of chemical substance” value (yeast gene YOL082W) was 2.1, the “The level of expressed mRNA in the presence of chemical substance/The level of expressed mRNA in the absence of chemical substance” value (yeast gene YOL083W) was 2.8 and the “The level of expressed mRNA in the presence of chemical substance/The level of expressed mRNA in the absence of chemical substance” value (yeast gene YOL117W) was 1.4. For the same compound, the “The level of expressed mRNA in the presence of chemical substance/The level of expressed mRNA in the absence of chemical substance” value (yeast gene YOL131W) was 1.0, the “The level of expressed mRNA in the presence of chemical substance/The level of expressed mRNA in the absence of chemical substance” value (yeast gene YOL150C) was 0.9 and the “The level of expressed mRNA in the presence of chemical substance/The level of expressed mRNA in the absence of chemical substance” value (yeast gene YOL162W) was 1.4. For the same compound, the “The level of expressed mRNA in the presence of chemical substance/The level of expressed mRNA in the absence of chemical substance” value (yeast gene YOR019W) was 4.7, the “level of expressed mRNA in the presence of chemical substance / level in the absence of chemical substance” value (yeast gene YOR022C) was 1.2 and the “level of expressed mRNA in the presence of chemical substance / level in the absence of chemical substance” value (yeast gene YOR087W) was 1.3. For the same compound, the “level of expressed mRNA in the presence of chemical substance / level in the absence of chemical substance” value (yeast gene YOR138C) was 0.8, the “The level of expressed mRNA in the presence of chemical substance/The level of expressed mRNA in the absence of chemical substance” value (yeast gene YOR197W) was 1.4 and the “level of expressed mRNA in the presence of chemical substance / level in the absence of chemical substance” value (yeast gene YOR253W) was 1.4. For the same compound, the “level of expressed mRNA in the presence of chemical substance / level in the absence of chemical substance” value (yeast gene YOR267C) was 0.9, the “level of expressed mRNA in the presence of chemical substance / level in the absence of chemical substance” value (yeast gene YOR325W) was 0.3 and the “level of expressed mRNA in the presence of chemical substance / level in the absence of chemical substance” value (yeast gene YPL005W) was 1.0. The “The level of expressed mRNA in the presence of chemical substance/The level of expressed mRNA in the absence of chemical substance” value (yeast gene YPL087W) was 7.3, the “level of expressed mRNA in the presence of chemical substance / level in the absence of chemical substance” value (yeast gene YPL150W) was 0.9 and the “level of expressed mRNA in the presence of chemical substance / level in the absence of chemical substance” value (yeast gene YPL152W) was 1.8. The “level of expressed mRNA in the presence of chemical substance / level in the absence of chemical substance” value (yeast gene YPL168W) was 1.4, the “level of expressed mRNA in the presence of chemical substance / level in the absence of chemical substance” value (yeast gene YPL180W) was 0.6 and the “level of expressed mRNA in the presence of chemical substance / level in the absence of chemical substance” value (yeast gene YPL188W) was 1.0. For the same compound, the “The level of expressed mRNA in the presence of chemical substance/The level of expressed mRNA in the absence of chemical substance” value (yeast gene YPL196W) was 1.7, the “The level of expressed mRNA in the presence of chemical substance/The level of expressed mRNA in the absence of chemical substance” value (yeast gene YPL206C) was 1.9 and the “level of expressed mRNA in the presence of chemical substance / level in the absence of chemical substance” value (yeast gene YPL221W) was 1.8. The “The level of expressed mRNA in the presence of chemical substance/The level of expressed mRNA in the absence of chemical substance” value (yeast gene YPL222W) was 1.3, the “level of expressed mRNA in the presence of chemical substance / level in the absence of chemical substance” value (yeast gene YPL225W) was 1.6 and the “The level of expressed mRNA in the presence of chemical substance/The level of expressed mRNA in the absence of chemical substance” value (yeast gene YPR023C) was 0.8. For the same compound, the “level of expressed mRNA in the presence of chemical substance / level in the absence of chemical substance” value (yeast gene YPR049C) was 1.0, the “level of expressed mRNA in the presence of chemical substance / level in the absence of chemical substance” value (yeast gene YPR146C) was 0.9 and the “level of expressed mRNA in the presence of chemical substance / level in the absence of chemical substance” value (yeast gene YPR148C) was 1.3. For the same compound, the “The level of expressed mRNA in the presence of chemical substance/The level of expressed mRNA in the absence of chemical substance” value (yeast gene YPR151C) was 4.1 and the “level of expressed mRNA in the presence of chemical substance / level in the absence of chemical substance” value (yeast gene YPR172W) was 1.2.
